Results taken from patent US7390625B2, “Apoptosis-associated protein and use thereof” (Takeda Pharmaceutical Company Limited, priority 2002, dated 2008).
Peptide text beside a SMILES is read from it. * marks the point of attachment. Cbz = O=C(OCc1ccccc1)*; CH2F = FC*

Test system: PAE-ABP1 cells
Experiment: Cell death assay in PAE-ABP1 cells after removal of tetracycline
Format: cell-based, porcine
Conditions: 50 μM, 18 hours after tetracycline removal
Method: FIGS. 7A-B show the induction of cell death by ABP1 in PAE-ABP1 cells. FIG. 7A: Phase contrast photomicrographs at 36 hours after cultivation of PAE-ABP1 cells in the presence (+) and absence (−) of tetracycline (Tet) are shown. FIG. 7B: The ratio (%) of cell death from cultivation in the presence of tetracycline (O hour) and at 24 hours and 48 hours after removal of tetracycline.
FIGS. 9A-B show the caspase dependency of cell death by ABP1. FIG. 9A: PAE-ABP1 cells were cultivated in the absence of tetracycline, and caspase-3 activity was measured after 0, 12, 24, and 36 hours. The results are shown as relative values with the value in the presence of tetracycline taken as 1. FIG. 9B: PAE-ABP1 cells were treated with zVAD-fmk (50 μM) simultaneously with removal of tetracycline, and the ratio (%) of dead cells was quantified. Cell death assay was conducted at 18 hours after removal of tetracycline. […]
When these cells were cultured in the absence of tetracycline, cell death was induced with the expression of the ABP1 protein, as in the transient expression of the ABP1 protein in HeLa cells (FIG. 7A). The ratio of dead cells to all cells (the ratio of cells showing a morphological sign of cell death to all cells was determined under a microscope; the results were shown as the mean for three visual fields) was determined to be about 55% at 48 hours after removal of tetracycline (FIG. 7B).

Which “suppression of cell death caused by ABP1” value does the source give for `COC(=O)C[C@H](NC(=O)[C@H](C)NC(=O)[C@@H](NC(=O)OCc1ccccc1)C(C)C)C(=O)CF` [zVAD-fmk, reference compound] (Cbz-Val-Ala-Asp(OMe)-CH2F) here?
Its value is “almost completely suppressed”.
